Data set [1] is described as follows: Caco-2 permeability assay (CacoReady kit). Format: in vitro ADME. The note with it: human, Caco-2, Caco-2 barrier, CacoReady kit; above 1×10^−6 cm/s classified as permeable. In short, it runs like this: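 Compounds are tested on pre-formed Caco-2 barriers supplied as a ready-to-use kit, following the kit protocol, and the Papp value is derived to estimate intestinal absorption.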

The nature of data set [2]: logD by shake flask method (octanol / PBS pH 7.4, HPLC). The note with it: octanol / PBS pH 7.4, shake flask. Format: physicochemical. In short, it runs like this:
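LogD obtained by HPLC measurement of how the compound distributes between PBS (pH 7.4) and octanol in a shake-flask experiment.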

In data set [3] the target is T1, recombinant human transglutaminase 2 (Homo sapiens, UniProt P21980).
T1 construct: purchased Zedira T022
T1 sequence (P21980 1-687): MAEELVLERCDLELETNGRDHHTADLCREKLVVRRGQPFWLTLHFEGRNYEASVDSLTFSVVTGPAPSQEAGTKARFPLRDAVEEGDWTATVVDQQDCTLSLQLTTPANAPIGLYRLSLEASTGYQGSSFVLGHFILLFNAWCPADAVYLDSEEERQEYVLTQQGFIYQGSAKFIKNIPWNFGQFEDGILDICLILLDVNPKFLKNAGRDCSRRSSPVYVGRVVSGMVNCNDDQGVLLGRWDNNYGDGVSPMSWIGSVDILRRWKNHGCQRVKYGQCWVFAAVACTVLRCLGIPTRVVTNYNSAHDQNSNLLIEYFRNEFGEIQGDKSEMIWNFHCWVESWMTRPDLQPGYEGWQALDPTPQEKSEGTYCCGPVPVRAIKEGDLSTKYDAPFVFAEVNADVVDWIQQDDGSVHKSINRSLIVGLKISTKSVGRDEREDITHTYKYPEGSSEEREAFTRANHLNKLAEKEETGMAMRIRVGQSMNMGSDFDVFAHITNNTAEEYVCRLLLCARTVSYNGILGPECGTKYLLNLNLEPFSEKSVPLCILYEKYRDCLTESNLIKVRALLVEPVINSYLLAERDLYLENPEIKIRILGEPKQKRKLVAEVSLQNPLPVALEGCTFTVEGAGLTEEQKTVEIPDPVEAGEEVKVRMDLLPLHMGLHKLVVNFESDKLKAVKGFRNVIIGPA
In words: Transglutaminase assay (DCC-assay): incorporation of dansylcadaverine into dimethylcasein. Format: biochemical. The note with it: recombinant human TG2 10 nM; dansylcadaverine incorporation into dimethylcasein; read-out: IC50 TG2. In short, it runs like this: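 IC50 is the inhibitor level that blocks 50% of initial activity. Activity is the fluorescence slope (λex 330, λem 500 nm) between 20 and 30 min of a 37 °C run, relative to a 2% DMSO control. The enzyme is recombinant human tissue transglutaminase, 10 nM final, tested against a 1:2 inhibitor dilution series in a pH 8.0 mix with 10 mM CaCl2, 10 mM glutathione, 16.7 µM dansylcadaverine and 4 µM N,N-dimethylcasein.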

Where only a bound is given, the exact number is not on record here.

What is called Papp is the rate of passage across a membrane or cell layer, normalised by area and donor concentration. Read a low Papp as slow passage. A word on the logD: it is lipophilicity at a set pH, counting ionised and neutral species. A lower logD goes with a more hydrophilic compound. The IC50 is the concentration needed to halve the response being measured. Take `CNC(=O)C(=O)CC[C@H](NC(=O)c1oc2ccccc2c1C)C(=O)Nc1cccn(CC(=O)N[C@H]2C[C@H]3CC[C@@H]2C3)c1=O` [II-90, (S)-N1-(1-(2-((1R,2S,4S)-bicyclo[2.2.1]heptan-2-ylamino)-2-oxoethyl)-2-oxo-1,2-dihydropyridin-3-yl)-N6-methyl-2-(3-methylbenzofuran-2-carboxamido)-5-oxohexanediamide]: in data set [1], the Papp was < 1 ×10⁻⁶ cm/s. Moreover, the logD in data set [2] was in the range of 1 to 3. Further, the IC50 in data set [3] was 40 to 400 nM.
In the case of `CNC(=O)C(=O)CC[C@H](NC(=O)c1snnc1C1CC1)C(=O)Nc1cccn(CC(=O)NC2C3CC4CC(C3)CC2C4)c1=O` (stereo partly drawn) [II-202, (S)-2-(4-cyclopropyl-1,2,3-thiadiazole-5-carboxamido)-N1-(1-(2-(2-adamantylamino)-2-oxoethyl)-2-oxo-1,2-dihydropyridin-3-yl)-N6-methyl-5-oxohexanediamide], the Papp in data set [1] was < 1 ×10⁻⁶ cm/s. In data set [2], the logD is < 1. Besides, the IC50 in data set [3] lay in the range of 40 to 400 nM.
For the compound `CNC(=O)C(=O)CC[C@H](NC(=O)c1ccc2ccoc2c1)C(=O)Nc1cccn(CC(=O)NC2C3CC4CC2CC(C(N)=O)(C4)C3)c1=O` (stereo partly drawn) [II-195, (S)-2-(benzofuran-6-carboxamido)-N1-(1-(2-(4-aminoadamantane-1-carboxamide)-2-oxoethyl)-2-oxo-1,2-dihydropyridin-3-yl)-N6-methyl-5-oxohexanediamide], the Papp in data set [1] was < 1 ×10⁻⁶ cm/s. In addition, the pH-dependent lipophilicity (logD) in data set [2] was < 1. Besides, in data set [3], the IC50 fell in the range of 40 to 400 nM.
On the same counts, the results for `CNC(=O)C(=O)CC[C@H](NC(=O)c1snnc1C)C(=O)Nc1cccn(CC(=O)N[C@@H]2C[C@H]3CC[C@@H]2C3)c1=O` [II-152, (S)-N1-(1-(2-((1R,2R,4S)-bicyclo[2.2.1]heptan-2-ylamino)-2-oxoethyl)-2-oxo-1,2-dihydropyridin-3-yl)-N6-methyl-2-(4-methyl-1,2,3-thiadiazole-5-carboxamido)-5-oxohexanediamide] are < 1 ×10⁻⁶ cm/s, < 1 and 40 to 400 nM.
`CNC(=O)C(=O)CC[C@H](NC(=O)c1oc2ccccc2c1C)C(=O)Nc1cccn(CC(=O)N[C@H]2C[C@H]3CC[C@@]2(C)C3(C)C)c1=O` [II-92, (S)-N1-methyl-5-(3-methylbenzofuran-2-carboxamido)-2-oxo-N6-(2-oxo-1-(2-oxo-2-((1S,2S,4R)-1,7,7-trimethylbicyclo[2.2.1]heptan-2-ylamino)ethyl)-1,2-dihydropyridin-3-yl)hexanediamide] showed a Papp in data set [1] of 1 to 10 ×10⁻⁶ cm/s. The logD in data set [2] is 3 to 5. In addition, the IC50 in data set [3] lay within 40 to 400 nM.
On to `CCCCCNC(=O)C(=O)CC[C@H](NC(=O)c1oc2ccccc2c1C)C(=O)Nc1cccn(CC(=O)NC2C3CC4CC(C3)CC2C4)c1=O` (stereo partly drawn) [II-116, (S)-N1-(1-(2-(2-adamantylamino)-2-oxoethyl)-2-oxo-1,2-dihydropyridin-3-yl)-2-(3-methylbenzofuran-2-carboxamido)-5-oxo-N6-pentylhexanediamide], for which, in data set [1], the Papp is 1 to 10 ×10⁻⁶ cm/s. The compound further registered a logD in data set [2] of 3 to 5. Besides, in data set [3], the IC50 was 40 to 400 nM.
`CNC(=O)C(=O)CC[C@H](NC(=O)c1sc(OC)nc1C)C(=O)Nc1cccn(CC(=O)NC2C3CC4CC(C3)CC2C4)c1=O` (stereo partly drawn) [II-18, (S)-N1-(1-(2-(2-adamantylamino)-2-oxoethyl)-2-oxo-1,2-dihydropyridin-3-yl)-2-(2-methoxy-4-methylthiazole-5-carboxamido)-N6-methyl-5-oxohexanediamide]: the Papp in data set [1] is < 1 ×10⁻⁶ cm/s. This compound showed a logD in data set [2] of 1 to 3. Moreover, the IC50 in data set [3] was 40 to 400 nM.
On the same counts, the results for `CCC12CC3CC(C1)C(NC(=O)Cn1cccc(NC(=O)[C@H](CCC(=O)C(=O)NC)NC(=O)c4ccc5cnccc5n4)c1=O)C(C3)C2` (stereo partly drawn) [II-187, (S)-N1-(1-(2-(5-ethyladamantane-2-amino)-2-oxoethyl)-2-oxo-1,2-dihydropyridin-3-yl)-N6-methyl-2-(1,6-naphthyridine-2-carboxamido)-5-oxohexanediamide] are 1 to 10 ×10⁻⁶ cm/s, 3 to 5 and 400 to 2500 nM.
Compound `Cc1c(C(=O)N[C@@H](CCC(=O)C(N)=O)C(=O)Nc2cccn(CC(=O)N[C@H]3C[C@H]4CC[C@]3(C)C4(C)C)c2=O)oc2ccccc12` [II-151, (S)-2-(3-methylbenzofuran-2-carboxamido)-5-oxo-N1-(2-oxo-1-(2-oxo-2-((1R,2S,4R)-1,7,7-trimethylbicyclo[2.2.1]heptan-2-ylamino)ethyl)-1,2-dihydropyridin-3-yl)hexanediamide] showed an apparent permeability coefficient (Papp) in data set [1] of 1 to 10 ×10⁻⁶ cm/s. The compound further yielded a logD in data set [2] of 1 to 3. Also, in data set [3], the IC50 lay in the range of 40 to 400 nM.
The compound `CNC(=O)C(=O)CC[C@H](NC(=O)c1oc2ccccc2c1C)C(=O)Nc1cccn(CC(=O)NC23CC(C2)C3)c1=O` [II-167, (S)-N1-(1-(2-(bicyclo[1.1.1]pentan-1-ylamino)-2-oxoethyl)-2-oxo-1,2-dihydropyridin-3-yl)-N6-methyl-2-(3-methylbenzofuran-2-carboxamido)-5-oxohexanediamide] returned a Papp in data set [1] of 1 to 10 ×10⁻⁶ cm/s. Besides, the logD in data set [2] was < 1. In addition, the IC50 in data set [3] was < 40 nM.
For `O=C(Cn1cccc(NC(=O)[C@H](CCC(=O)C(=O)NC2CCCCC2)NC(=O)c2cc3ccccc3nn2)c1=O)NC12CC(C1)C2` [II-181, (S)-N1-(1-(2-(bicyclo[1.1.1]pentan-1-ylamino)-2-oxoethyl)-2-oxo-1,2-dihydropyridin-3-yl)-2-(cinnoline-3-carboxamido)-N6-cyclohexyl-5-oxohexanediamide], the apparent permeability (Papp) in data set [1] was < 1 ×10⁻⁶ cm/s. In data set [2], the logD is 1 to 3. Further, in data set [3], the IC50 was 400 to 2500 nM.
In data set [1], `C=CCNC(=O)C(=O)CC[C@H](NC(=O)c1oc2ccccc2c1C)C(=O)Nc1cccn(CC(=O)NC2C3CC4CC(C3)CC2C4)c1=O` (stereo partly drawn) [II-117, (S)-N1-allyl-N6-(1-(2-(2-adamantylamino)-2-oxoethyl)-2-oxo-1,2-dihydropyridin-3-yl)-5-(3-methylbenzofuran-2-carboxamido)-2-oxohexanediamide] showed a Papp of 1 to 10 ×10⁻⁶ cm/s. In addition, the logD in data set [2] was in the range of 3 to 5. Besides, the IC50 in data set [3] is 40 to 400 nM.
On the same counts, the results for `CNC(=O)C(=O)CC[C@H](NC(=O)c1oc2ccccc2c1C)C(=O)Nc1cccn(CC(=O)NC2C3CC4CC2CC(O)(C4)C3)c1=O` (stereo partly drawn) [II-68, (S)-N1-(1-(2-(5-hydroxyadamantane-2-amino)-2-oxoethyl)-2-oxo-1,2-dihydropyridin-3-yl)-N6-methyl-2-(3-methylbenzofuran-2-carboxamido)-5-oxohexanediamide] are < 1 ×10⁻⁶ cm/s, < 1 and 40 to 400 nM.
The compound `CNC(=O)C(=O)CC[C@H](NC(=O)c1sc(C(F)(F)F)nc1C)C(=O)Nc1cccn(CC(=O)N[C@@H]2C[C@@H]3CC[C@H]2C3)c1=O` [II-154, (S)-N1-(1-(2-((1S,2R,4R)-bicyclo[2.2.1]heptan-2-ylamino)-2-oxoethyl)-2-oxo-1,2-dihydropyridin-3-yl)-N6-methyl-2-(4-methyl-2-(trifluoromethyl)thiazole-5-carboxamido)-5-oxohexanediamide] yielded a Papp in data set [1] of 1 to 10 ×10⁻⁶ cm/s. For the same compound, the log distribution coefficient (logD) in data set [2] was in the range of 1 to 3. Moreover, the IC50 in data set [3] was 40 to 400 nM.
On to `CC(C)(C)NC(=O)C(=O)CC[C@H](NC(=O)c1c[nH]c2ccccc12)C(=O)Nc1cccn(CC(=O)NC2C3CC4CC(C3)CC2C4)c1=O` (stereo partly drawn) [II-176, (S)-N1-tert-butyl-5-(1H-indole-3-carboxamido)-N6-(1-(2-(2-adamantylamino)-2-oxoethyl)-2-oxo-1,2-dihydropyridin-3-yl)-2-oxohexanediamide], for which the Papp in data set [1] is 1 to 10 ×10⁻⁶ cm/s. Also, the logD in data set [2] lay within 3 to 5. For the same compound, the IC50 in data set [3] fell in the range of 400 to 2500 nM.
Turning to `Cc1nc(C(F)(F)F)sc1C(=O)N[C@@H](CCC(=O)C(N)=O)C(=O)Nc1cccn(CC(=O)NC2C3CC4CC(C3)CC2C4)c1=O` (stereo partly drawn) [II-126, (S)-N1-(1-(2-(2-adamantylamino)-2-oxoethyl)-2-oxo-1,2-dihydropyridin-3-yl)-2-(4-methyl-2-(trifluoromethyl)thiazole-5-carboxamido)-5-oxohexanediamide], the Papp in data set [1] is 1 to 10 ×10⁻⁶ cm/s. Also, the logD in data set [2] was < 1. Besides, in data set [3], the IC50 was in the range of 40 to 400 nM.
On the same counts, the results for `Cc1nnsc1C(=O)N[C@@H](CCC(=O)C(N)=O)C(=O)Nc1cccn(CC(=O)NC2C3CC4CC(C3)CC2C4)c1=O` (stereo partly drawn) [II-145, (S)-N1-(1-(2-(2-adamantylamino)-2-oxoethyl)-2-oxo-1,2-dihydropyridin-3-yl)-2-(4-methyl-1,2,3-thiadiazole-5-carboxamido)-5-oxohexanediamide] are < 1 ×10⁻⁶ cm/s, < 1 and 40 to 400 nM.
